According to ChEMBL document CHEMBL4732174, “Discovery of 6-(7-Nitro-2,1,3-benzoxadiazol-4-ylthio)hexanol Derivatives as Glutathione Transferase Inhibitors with Favorable Selectivity and Tolerated Toxicity” (J Med Chem, 2021):

What was measured:
[1] = biological target: T1, liver carboxylesterase (Sus scrofa, UniProt Q29550); assay: Stability of the compound assessed as pig liver carboxylesterase-mediated compound hydrolysis at 10 mM measured after 12 hrs by HPLC analysis; assay type: ADME; settings: read-out: Drug degradation
T1 sequence (Q29550 whole entry): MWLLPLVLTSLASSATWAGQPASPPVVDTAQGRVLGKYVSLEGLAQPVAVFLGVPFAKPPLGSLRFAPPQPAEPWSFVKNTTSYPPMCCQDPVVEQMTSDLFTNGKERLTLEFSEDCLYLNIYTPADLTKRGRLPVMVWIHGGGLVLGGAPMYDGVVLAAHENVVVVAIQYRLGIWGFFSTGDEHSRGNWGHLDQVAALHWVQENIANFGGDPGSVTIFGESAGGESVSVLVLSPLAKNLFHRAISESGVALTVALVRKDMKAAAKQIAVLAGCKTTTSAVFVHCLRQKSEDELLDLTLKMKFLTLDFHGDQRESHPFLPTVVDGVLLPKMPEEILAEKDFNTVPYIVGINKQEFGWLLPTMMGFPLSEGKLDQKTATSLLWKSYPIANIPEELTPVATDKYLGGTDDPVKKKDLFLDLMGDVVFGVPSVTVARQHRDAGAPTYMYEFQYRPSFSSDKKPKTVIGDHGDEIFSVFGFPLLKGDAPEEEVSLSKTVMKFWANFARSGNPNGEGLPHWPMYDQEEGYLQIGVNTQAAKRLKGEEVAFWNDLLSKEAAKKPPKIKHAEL

[2] = tested on: A549; assay: Antiproliferative activity against human A549 cells assessed as inhibition of cell proliferation incubated for 72 hrs by MTT assay; assay type: functional, cell-based; settings: A549, 72 h
[3] = Toxicity in BALB/c nude mouse xenografted with human 143B cells assessed as necrosis in kidney at 5 to 20 mg/kg, po administered once daily for 28 consecutive days by hematoxylin-eosin staining based assay; assay type: organism-based; settings: in vivo, 672 h, dose 5-20 mg/kg, time 28 day
[4] = rat, in vivo, po, 80 mg/kg, 48 h
Description: AUC (0 to infinity) in Sprague-Dawley rat at 80 mg/kg, po administered as single dose measured upto 48 hrs by LC-MS/MS analysis

[5] = tested on: 143B; assay: Induction of cell cycle arrest in human 143B cells assessed as accumulation at G2 phase at 10 uM incubated for 48 hrs by propidium iodide staining based flow cytometry (reference value: 1.35 %); assay type: functional
[6] = tested on: HUVEC; assay: Cytotoxicity against HUVEC assessed as reduction in cell viability incubated for 72 hrs by MTT assay; assay type: cell-based; settings: Homo sapiens
[7] = Toxicity in BALB/c nude mouse xenografted with human 143B cells assessed as necrosis in liver at 5 to 20 mg/kg, po administered once daily for 28 consecutive days by hematoxylin-eosin staining based assay; assay type: organism-based; settings: in vivo, 672 h, dose 5-20 mg/kg, time 28 day
[8] = in vivo; settings: Sprague-Dawley, rat, po, 80 mg/kg
Description: Cmax in Sprague-Dawley rat at 80 mg/kg, po administered as single dose measured upto 48 hrs by LC-MS/MS analysis

[9] = MRT (0 to infinity) in Sprague-Dawley rat at 80 mg/kg, po administered as single dose measured upto 48 hrs by LC-MS/MS analysis; settings: in vivo
[10] = tested on: 143B; assay: Induction of cell cycle arrest in human 143B cells assessed as accumulation at S phase at 5 uM incubated for 48 hrs by propidium iodide staining based flow cytometry (reference value: 32.03 %); assay type: functional
[11] = Toxicity in BALB/c nude mouse xenografted with human 143B cells assessed as cellular inflammation in lung at 5 to 20 mg/kg, po administered once daily for 28 consecutive days by hematoxylin-eosin staining based assay; assay type: organism-based; settings: in vivo, 672 h, dose 5-20 mg/kg, time 28 day
[12] = Toxicity in BALB/c nude mouse xenografted with human 143B cells assessed as liver edema at 5 to 20 mg/kg, po administered once daily for 28 consecutive days by hematoxylin-eosin staining based assay; assay type: organism-based; settings: in vivo, 672 h, dose 5-20 mg/kg, time 28 day
[13] = in vivo; settings: Sprague-Dawley, rat, po, 80 mg/kg; remark: listed apart in the source
Description: AUC (0 to t) in Sprague-Dawley rat at 80 mg/kg, po administered as single dose measured upto 48 hrs by LC-MS/MS analysis

[14] = Toxicity in BALB/c nude mouse xenografted with human 143B cells assessed as cellular inflammation in spleen at 5 to 20 mg/kg, po administered once daily for 28 consecutive days by hematoxylin-eosin staining based assay; assay type: organism-based; settings: in vivo, 672 h, dose 5-20 mg/kg, time 28 day
[15] = Toxicity in BALB/c nude mouse xenografted with human 143B cells assessed as necrosis in spleen at 5 to 20 mg/kg, po administered once daily for 28 consecutive days by hematoxylin-eosin staining based assay; assay type: organism-based; settings: in vivo, 672 h, dose 5-20 mg/kg, time 28 day
[16] = Toxicity in BALB/c nude mouse xenografted with human 143B cells assessed as cellular inflammation in liver at 5 to 20 mg/kg, po administered once daily for 28 consecutive days by hematoxylin-eosin staining based assay; assay type: organism-based; settings: in vivo, 672 h, dose 5-20 mg/kg, time 28 day
[17] = biological target: Glutathione S-transferase P (Homo sapiens, UniProt P09211); assay: Inhibition of GSTP1-1 (unknown origin) using reduced GSH and CDNB as substrate incubated for 10 mins followed by substrate addition by microplate reader analysis
Chain of Glutathione S-transferase P (P09211 whole entry): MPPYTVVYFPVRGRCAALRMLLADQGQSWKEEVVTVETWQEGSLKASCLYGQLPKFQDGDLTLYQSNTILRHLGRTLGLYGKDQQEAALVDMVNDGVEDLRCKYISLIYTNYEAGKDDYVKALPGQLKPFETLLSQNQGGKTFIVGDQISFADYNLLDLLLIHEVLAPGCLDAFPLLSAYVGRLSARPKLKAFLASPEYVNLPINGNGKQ

[18] = tested on: 143B; assay: Induction of cell cycle arrest in human 143B cells assessed as accumulation at S phase at 2.5 uM incubated for 48 hrs by propidium iodide staining based flow cytometry (reference value: 32.03 %); assay type: functional
[19] = tested on: 143B; assay: Induction of apoptosis in human 143B cells assessed as apoptotic cells at 5 uM incubated for 24 hrs by Annexin V-FITC/PI double staining based flow cytometric analysis (reference value: 3.9%); assay type: functional
[20] = MRT (0 to t) in Sprague-Dawley rat at 80 mg/kg, po administered as single dose measured upto 48 hrs by LC-MS/MS analysis; settings: in vivo
[21] = tested on: 143B; assay: Induction of apoptosis in human 143B cells assessed as apoptotic cells at 2.5 uM incubated for 24 hrs by Annexin V-FITC/PI double staining based flow cytometric analysis (reference value: 3.9%); assay type: functional
[22] = Antiproliferative activity against […] B16 cells assessed as inhibition of cell proliferation incubated for 72 hrs by MTT assay; assay type: functional, cell-based; settings: B16, 72 h
[23] = tested on: 143B; assay: Induction of cell cycle arrest in human 143B cells assessed as accumulation at G2 phase at 2.5 uM incubated for 48 hrs by propidium iodide staining based flow cytometry (reference value: 1.35 %); assay type: functional
[24] = tested on: 143B; assay: Antiproliferative activity against human 143B cells assessed as inhibition of cell proliferation incubated for 72 hrs by MTT assay; assay type: functional, cell-based
[25] = Toxicity in BALB/c nude mouse xenografted with human 143B cells assessed as necrosis in heart at 5 to 20 mg/kg, po administered once daily for 28 consecutive days by hematoxylin-eosin staining based assay; assay type: organism-based; settings: in vivo, 672 h, dose 5-20 mg/kg, time 28 day
[26] = in vivo; settings: Sprague-Dawley, rat, po, 80 mg/kg; remark: listed apart in the source
Description: Terminal half life in Sprague-Dawley rat at 80 mg/kg, po administered as single dose measured upto 48 hrs by LC-MS/MS analysis

[27] = tested on: 143B; assay: Induction of apoptosis in human 143B cells assessed as apoptotic cells at 10 uM incubated for 24 hrs by Annexin V-FITC/PI double staining based flow cytometric analysis (reference value: 3.9%); assay type: functional
[28] = tested on: 143B; assay: Induction of cell cycle arrest in human 143B cells assessed as accumulation at S phase at 10 uM incubated for 48 hrs by propidium iodide staining based flow cytometry (reference value: 32.03 %); assay type: functional
[29] = tested on: HOS; assay: Antiproliferative activity against human HOS cells assessed as inhibition of cell proliferation incubated for 72 hrs by MTT assay; assay type: functional, cell-based
[30] = Toxicity in BALB/c nude mouse xenografted with human 143B cells assessed as lung edema at 5 to 20 mg/kg, po administered once daily for 28 consecutive days by hematoxylin-eosin staining based assay; assay type: organism-based; settings: in vivo, 672 h, dose 5-20 mg/kg, time 28 day

SMILES: CN(C)CCCNC(=O)CCC(=O)OCCCCCCSc1ccc([N+](=O)[O-])c2nonc12
- metabolised at 12 h, 10000 µM [1]: 33%
- IC50 [2]: 1.58 µM
- Activity [3]: Non-Toxic
- AUC [4]: 6514.48 ng·h/mL
- Activity [5]: 21.01%
- IC50 [6]: 1.6 µM
- Activity [7]: Non-Toxic
- Cmax at 48 h [8]: 1810 ng/mL
- MRT inf at 48 h [9]: 6.54 h
- Activity [10]: 34.94%
- Activity [11]: Non-Toxic
- Activity [12]: Non-Toxic
- AUC(0-t) at 48 h [13]: 6420 ng·h/mL
- Activity [14]: Non-Toxic
- Activity [15]: Non-Toxic
- Activity [16]: Non-Toxic
- IC50 [17]: 0.16 µM
- Activity [18]: 40.75%
- Activity [19]: 74%
- MRT last at 48 h [20]: 6.35 h
- Activity [21]: 46.5%
- IC50 [22]: 0.95 µM
- Activity [23]: 9.46%
- IC50 [24]: 1.18 µM
- Activity [25]: Non-Toxic
- half-life at 48 h [26]: 7.28 h
- Activity [27]: 84%
- Activity [28]: 30.32%
- IC50 [29]: 1.85 µM
- Activity [30]: Non-Toxic
